Measurements from patent US20080118573A1, “Use of Heavy Metals in the Treatment of Biofilms” (priority 2004, published 2008).
In brackets after ≈: the same amount, converted by molar mass. Like-named read-outs stand apart in the source and are kept apart here.

How the values were obtained:
Type in all cases: cell-based
[1] = test system: Pseudomonas aeruginosa ATCC 27853 planktonic and biofilm bacteria; details: LB+B1, 24 h exposure; for MIC: P. aeruginosa ATCC 27853; for MBEC: P. aeruginosa ATCC 27853 biofilm; for MBC: P. aeruginosa ATCC 27853 planktonic
[2] = test system: Staphylococcus aureus ATCC 29213 planktonic and biofilm bacteria; details: LB+B1, 24 h exposure; for MIC: S. aureus ATCC 29213; for MBEC: S. aureus ATCC 29213 biofilm; for MBC: S. aureus ATCC 29213 planktonic
[3] = test system: Escherichia coli JM109 planktonic and biofilm bacteria; details: LB+B1, 24 h exposure; for MIC: E. coli JM109; for MBEC: E. coli JM109 biofilm; for MBC: E. coli JM109 planktonic
[4] = test system: Pseudomonas aeruginosa biofilms; test: Metal and antibiotic combination assay; details: for MBC / MIC / MBEC: median of 4 replicates
Protocol: Cells were grown to a mean density of 6.0×10^6 cfu/peg in LB+B1 media.
• 1. […] All data are median values based on 4 replicates.

[5] = test system: Pseudomonas aeruginosa ATCC 27853 planktonic and biofilm bacteria; test: MBEC-HTP antibiotic susceptibility, P. aeruginosa; details: for MBEC: P. aeruginosa ATCC 27853 biofilm
Protocol: (§1) Luria-Bertani medium was chosen for two reasons: 1) its established use in studies of metal resistance, and 2) because of the use of rich media in NCCLS testing protocols for antimicrobial resistance. Antibiotic resistance assays were performed using cation-adjusted Mueller-Hinton broth (CA-MHB, BDH Inc.) and subcultures, MBC and MBEC bacterial counts were performed using trypticase soy agar (TSA, Difco).
(§2) The present study used a novel high throughput method for screening biofilm susceptibility to metal cations and oxyanions: the MBEC device (MBEC Bioproducts Inc., Edmonton, Alberta, Canada, http://www.mbec.ca). The MBEC high throughput (MBEC-HTP) assay system consists of a shallow trough into which a plastic lid with 96 pegs fits. This peg lid also fits over a standard 96-well microtitre plate which can subsequently be used to setup serial dilutions of antimicrobial compounds. The bottom half of the MBEC device is a trough that has shallow channels that direct flow of an inoculated suspension over the pegs on the lid.
(§3) The inoculum was standardized to a 1.0 McFarland standard and verified by viable counts. The 1.0 McFarland standard inoculum was diluted 30-fold with growth media, which served as the growth suspension to inoculate the MBECJ device.
(§4) P. aeruginosa was incubated for 9 h, S. aureus for 24 h and E. coli for 24 h to generate approximately equivalent biofilms of 6.0×10^6 cfu/peg. Following the incubation period, growth of biofilm and planktonic cultures in the MBECJ device were discerned and verified by viable cell counts.
(§5) Chloramphenicol (Sigma) was prepared in 50% ethanol and treated identically to the other antibiotics. 10% ethanol was added to the growth controls for chloramphenicol assays. […] Starting with the working solutions, serial two-fold dilutions were made in the wells of a 96-well plate (the challenge plate), leaving the first well of each row as a sterility control and the second as a growth control (i.e. no antibiotic).

[6] = test system: Escherichia coli JM109 planktonic and biofilm bacteria; test: MBEC-HTP antibiotic susceptibility, E. coli; details: for MBEC: E. coli JM109 biofilm
Protocol: as §1, §2, §3, §4, §5

[7] = test system: Staphylococcus aureus ATCC 29213 planktonic and biofilm bacteria; test: MBEC-HTP antibiotic susceptibility, S. aureus; details: CA-MHB, 24 h exposure; for MBEC: S. aureus ATCC 29213 biofilm; for MIC: S. aureus ATCC 29213; for MBC: S. aureus ATCC 29213 planktonic
Protocol: as §1, §2, §3, §4, §5

[8] = antibiotic or heavy metal alone, LB+B1
[9] = Pseudomonas aeruginosa, ATCC27853, P. aeruginosa ATCC 27853, CA-MHB, 24 h exposure, read-out: MIC
[10] = Pseudomonas aeruginosa, ATCC27853, P. aeruginosa ATCC 27853 planktonic, CA-MHB, 24 h exposure, read-out: MBC
[11] = Pseudomonas aeruginosa, ATCC27853, 24 h
[12] = antibiotic in combination with 500 μg/ml Zn^2+

Molecule	MIC [1]	MBEC [1]	MBC [1]	MIC [2]	MBEC [2]	MBC [2]	MIC [3]	MBEC [3]	MBC [3]	further results
O=[N+]([O-])[O-].[Ag+] [Ag^+, silver nitrate]	0.30 ± 0 mM	0.40 ± 0.17 mM	0.30 ± 0 mM	0.30 ± 0 mM	>9.5 mM	9.5 ± 0 mM	0.06 ± 0.02 mM	0.07 ± 0.02 mM	0.09 ± 0.04 mM	–
NCC[C@H](O)C(=O)N[C@@H]1C[C@H](N)[C@@H](O[C@H]2O[C@H](CN)[C@@H](O)[C@H](O)[C@H]2O)[C@H](O)[C@H]1O[C@H]1O[C@H](CO)[C@@H](O)[C@H](N)[C@H]1O [Amikacin]	–	–	–	–	–	–	–	–	–	MIC in the presence of Cu^2+, times less than the MIC for the antibiotic alone ([4]; 200 μg/ml Cu^2+): 256 times; MBC ([4]; Pseudomonas aeruginosa, antibiotic in combination with 200 μg/ml Cu^2+, read-out: MBC): > 64 µg/mL; MIC ([4]; Pseudomonas aeruginosa, antibiotic in combination with 200 μg/ml Cu^2+, read-out: MIC): 0.125 µg/mL; MBC ([4]; Pseudomonas aeruginosa, antibiotic or heavy metal alone, LB+B1, read-out: MBC): 256 µg/mL; MIC ([4]; Pseudomonas aeruginosa, antibiotic or heavy metal alone, LB+B1, read-out: MIC): 32 µg/mL; MBEC ([4]; antibiotic in combination with 200 μg/ml Cu^2+): >64 µg/mL; MBEC [4, 8]: >512 µg/mL; MBEC ([5]; CA-MHB, 24 h exposure): >512 µg/mL; MIC [5, 9]: 32 µg/mL (≈ 54.6 µM); MBC [5, 10]: 224 ± 64 µg/mL (≈ 383 µM)
CC1(C)S[C@@H]2[C@H](NC(=O)[C@H](N)c3ccccc3)C(=O)N2[C@H]1C(=O)O [Ampicillin]	–	–	–	–	–	–	–	–	–	MBEC ([6]; CA-MHB, 24 h exposure): 1024 ± 0 µg/mL; MBC ([6]; Escherichia coli, 24 h): 64 µg/mL (≈ 183 µM); MIC ([6]; Escherichia coli, 24 h): 4 µg/mL (≈ 11.4 µM); MBEC ([5]; CA-MHB, 24 h exposure): >512 µg/mL; MBC [5, 11]: > 512 µg/mL; MIC [5, 11]: > 512 µg/mL
[Cl][Cd][Cl] [Cd^2+, Cadmium chloride]	4.6 ± 0 mM	36 ± 0 mM	36 ± 0 mM	0.25 ± 0.07 mM	15.9 ± 4.6 mM	18.2 ± 0 mM	1.1 ± 0 mM	2.3 ± 0 mM	2.3 ± 0 mM	–
O=C(N[C@H](CO)[C@H](O)c1ccc([N+](=O)[O-])cc1)C(Cl)Cl [Chloramphenicol]	–	–	–	–	–	–	–	–	–	MBEC ([6]; CA-MHB, 24 h exposure): >256 µg/mL; MIC ([6]; Escherichia coli, E. coli JM109, CA-MHB, 24 h exposure, read-out: MIC): 3.5 ± 1 µg/mL (≈ 10.8 µM); MBC ([6]; Escherichia coli, E. coli JM109 planktonic, CA-MHB, 24 h exposure, read-out: MBC): 128 µg/mL (≈ 396 µM); MBEC [7]: >1024 µg/mL; MIC ([7]; Staphylococcus aureus, ATCC29213, read-out: MIC): 80 ± 32 µg/mL (≈ 248 µM); MBC ([7]; Staphylococcus aureus, ATCC29213, read-out: MBC): 1020 µg/mL (≈ 3170 µM); MBEC ([5]; CA-MHB, 24 h exposure): >512 µg/mL; MIC [5, 9]: > 512 µg/mL; MBC [5, 10]: > 512 µg/mL
[Cl][Hg][Cl] [Hg^2+, mercuric chloride]	0.38 ± 0.14 mM	0.43 ± 0.16 mM	0.53 ± 0.39 mM	0.020 mM	0.080 ± 0 mM	0.080 ± 0 mM	0.07 ± 0.05 mM	0.07 ± 0.05 mM	0.07 ± 0.05 mM	–
O=S(=O)([O-])[O-].[Mn+2] [Mn^2+, manganous sulfate]	>149 mM	>149 mM	>149 mM	12 ± 5 mM	>149 mM	>149 mM	37 ± 0 mM	199 ± 86 mM	199 ± 86 mM	–
[Na+].[Na+].[O]=[Mo](=[O])([O-])[O-] [MoO4^2−, sodium molybdate]	>102 mM	>102 mM	>102 mM	>102 mM	>102 mM	>102 mM	>102 mM	>102 mM	>102 mM	–
CCN1CCN(C(=O)N[C@@H](C(=O)N[C@@H]2C(=O)N3[C@@H]2SC(C)(C)[C@@H]3C(=O)O)c2ccccc2)C(=O)C1=O [Pipperacillin, Piperacillin]	–	–	–	–	–	–	–	–	–	MIC ([6]; E. coli JM109, CA-MHB, 24 h exposure): 4 ± 0 µg/mL (≈ 7.73 µM); MBEC ([6]; CA-MHB, 24 h exposure): 32 ± 0 µg/mL; MBC ([6]; E. coli JM109 planktonic, CA-MHB, 24 h exposure): 16 ± 0 µg/mL (≈ 30.9 µM)
O=[Se](O)O [SeO3^2−, selenous acid]	28 ± 8 mM (≈ 3610 µg/mL)	28 ± 8 mM	28 ± 8 mM (≈ 3610 µg/mL)	16 ± 0 mM (≈ 2060 µg/mL)	16 ± 0 mM	16 ± 0 mM (≈ 2060 µg/mL)	8.1 ± 0 mM (≈ 1040 µg/mL)	8.1 ± 0 mM	8.1 ± 0 mM (≈ 1040 µg/mL)	–
[Cl][Sn][Cl] [Sn^2+, stannous chloride]	17 ± 0 mM	17 ± 0 mM	22 ± 9 mM	8.6 ± 0 mM	17.3 ± 0 mM	17.3 ± 0 mM	–	17 ± 0 mM	17 ± 0 mM	–
O=[Te]([O-])[O-].[K+].[K+] [TeO3^2−, potassium tellurite]	0.73 ± 0 mM	4.4 ± 1.7 mM	5.1 ± 0 mM	0.18 ± 0 mM	0.73 ± 0 mM	>0.73 mM	0.006 mM	0.014 mM	0.016 mM	–
O=[Te](=O)([O-])[O-].[K+].[K+] [TeO4^2−, potassium tellurate]	>1.3 mM	>1.3 mM	>1.3 mM	0.67 ± 0 mM	1.3 ± 0.7 mM	>1.3 mM	0.06 ± 0.02 mM	0.42 ± 0.17 mM	0.42 ± 0.17 mM	–
[Na+].[Na+].[O]=[W](=[O])([O-])[O-] [WO4^2−, sodium tungstate]	>66 mM	>66 mM	>66 mM	>66 mM	>66 mM	>66 mM	>66 mM	>66 mM	>66 mM	–
Gentamicin	–	–	–	–	–	–	–	–	–	MBC [4, 12]: 128 µg/mL; MIC [4, 12]: 64 µg/mL; MBC [4, 8]: 32 µg/mL; MBEC [4, 8]: >1024 µg/mL; MIC [4, 8]: 8 µg/mL; MIC [7]: <2 µg/mL; MBEC [7]: 3.5 ± 1 µg/mL; MBC [7]: 4 ± 0 µg/mL; MIC ([5]; P. aeruginosa ATCC 27853, CA-MHB, 24 h exposure): 10 ± 4 µg/mL; MBEC ([5]; CA-MHB, 24 h exposure): >1024 µg/mL; MBC ([5]; P. aeruginosa ATCC 27853 planktonic, CA-MHB, 24 h exposure): 28 ± 8 µg/mL
Sodium arsenite [AsO2^−]	>77 mM	>77 mM	>77 mM	9.6 ± 0 mM	>77 mM	>77 mM	2.4 ± 0 mM	77 ± 0 mM	77 ± 0 mM	–
Sodium hydrogen arsenate [AsO4^2−]	>59 mM	>59 mM	>59 mM	15 ± 0 mM	>59 mM	>59 mM	7.4 ± 0 mM	>60 mM	>60 mM	–
